Test results reported in article PMC5514153, “Targeting PTPRZ inhibits stem cell-like properties and tumorigenicity in glioblastoma cells” (Scientific Reports, 2017).

What was measured:
PTPRG V1038F = molecular target: T1, PTPRG V1038F (Homo sapiens, UniProt P23470, V1038F); experiment: Inhibitor sensitivity of point mutant PTPRG V1038F; type: biochemical; conditions: 10 µM, vs wild-type PTPRG
T1 construct: Point mutants of the PTPRZ1-ICR, PTPRG-ICR, and PTPN1 catalytic domain were generated; GST (N); made in house
Text: (§1) Figure 5 Structural basis for PTPRZ inhibition of NAZ2329. (A) An enlarged view of the X-ray structure of human PTPRZ1-D1 complexed with NAZ2329 (PDB ID: 5H08) (left), X-ray structure of the apo (open) form of PTPRZ1-D1 (PDB ID: 5AWX, ref. [6], middle) and a computer-modeled structure of the closed form of PTPRZ1-D1 complexed with a competitive inhibitor, SCB4380 (ref. [6], right), are shown. PTPRZ1-D1 is shown as a gray surface representation, in which Cys1933 at the active site and Val-1911 at the bottom of the allosteric pocket are indicated in red and yellow, respectively. Inhibitors are colored according to the atomic species in a stick figure representation as follows: oxygen (red), nitrogen (blue), sulfur (yellow), and carbon (green). The bottom figures show the conformation of the WPD loop (orange) as cartoon representations, in which Asp1901 and Cys1933 are indicated by orange and red spheres, respectively. Side chains of Arg1939 at the active site, Met1902 in the WPD loop, and Val-1911 at the bottom of the allosteric binding area are also shown in the stick representation. (B) LigPlot representation of the NAZ2329 interaction with PTPRZ1-D1. The predicted hydrogen bonds (broken black lines) and residues (red spoked arcs) involved in the hydrophobic interaction are shown. […]

C6 cells = experiment: Boyden chamber migration assay, C6 cells; type: cell-based, rat; conditions: 3 h
Description: Figure 7 Cellular effects of NAZ2329 on the malignant phenotypes of C6 cells. (A) Phosphorylation of paxillin at Tyr-118. C6 cells were incubated with NAZ2329 for the indicated periods. Immunoprecipitated paxillin was analyzed by Western blotting using anti-pY118-paxillin and anti-paxillin. Blots are representative of five independent cultures. […] (B) Cell proliferation assay. C6 cells were incubated for 48 h with NAZ2329 in normal medium containing 2% FBS. […] (C) Boyden chamber assay. Cells were allowed to migrate for 3 h. DAPI-stained nuclei are shown before (total) and after (migrated) the removal of cells remaining in the top chamber. Scale bars, 100 µm. […] (D,E) Sphere formation (D) and SOX2 expression (E). C6 cells were cultured in CSC medium for 7 days with indicated concentrations of NAZ2329. Images are representative of five independent cultures. Scale bars, 100 µm. […] (F) Self-renewal of C6 spheres. C6 spheres were initially developed in CSC medium for 7 days, followed by an incubation with NAZ2329 in CSC medium for 5 days. Images are representative of five independent cultures. Scale bars, 100 µm. […] Full-length blots and gels are presented in Supplementary Fig. S7.
This assay was performed as described previously. […] Cells were allowed to migrate for 3 h, and the number of cells that migrated to the lower surface was counted under a conventional fluorescence microscope.

[1] = tested on: paxillin at Tyr-118 in C6 cells; experiment: Paxillin Tyr-118 phosphorylation in C6 cells (Western blot); type: cell-based, rat; conditions: 25 µM
Description: Figure 7 Cellular effects of NAZ2329 on the malignant phenotypes of C6 cells. (A) Phosphorylation of paxillin at Tyr-118. C6 cells were incubated with NAZ2329 for the indicated periods. Immunoprecipitated paxillin was analyzed by Western blotting using anti-pY118-paxillin and anti-paxillin. Blots are representative of five independent cultures. […] (B) Cell proliferation assay. C6 cells were incubated for 48 h with NAZ2329 in normal medium containing 2% FBS. […] (C) Boyden chamber assay. Cells were allowed to migrate for 3 h. DAPI-stained nuclei are shown before (total) and after (migrated) the removal of cells remaining in the top chamber. Scale bars, 100 µm. […] (D,E) Sphere formation (D) and SOX2 expression (E). C6 cells were cultured in CSC medium for 7 days with indicated concentrations of NAZ2329. Images are representative of five independent cultures. Scale bars, 100 µm. […] (F) Self-renewal of C6 spheres. […]
After precleaning the extracts with Protein G Sepharose (#17-0618-02, GE Healthcare), samples were subjected to immunoprecipitation with Protein G Sepharose coated with a mouse anti-paxillin antibody. […] The binding of these antibodies was detected with Luminata Forte Western HRP substrate (Millipore) and imaged with a chemiluminescent image analyzer system (EZ-Caputure MG, Atto Corp).

PTPRZ1 V1911F = molecular target: T2, PTPRZ1 V1911F (Homo sapiens, UniProt P23471, V1911F); experiment: Inhibitor sensitivity of point mutant PTPRZ1 V1911F; type: biochemical; conditions: 10 µM, vs wild-type PTPRZ1
T2 construct: Point mutants of the PTPRZ1-ICR, PTPRG-ICR, and PTPN1 catalytic domain were generated; GST (N); made in house
Text: as §1

PTPRZ1 M1902F, M1902H = experiment: Inhibitor sensitivity of point mutants PTPRZ1 M1902F and M1902H; type: biochemical, human; conditions: 10 µM, vs wild-type PTPRZ1
Text: as §1

T2 sequence (P23471 1663-2315 V1911F limits assumed): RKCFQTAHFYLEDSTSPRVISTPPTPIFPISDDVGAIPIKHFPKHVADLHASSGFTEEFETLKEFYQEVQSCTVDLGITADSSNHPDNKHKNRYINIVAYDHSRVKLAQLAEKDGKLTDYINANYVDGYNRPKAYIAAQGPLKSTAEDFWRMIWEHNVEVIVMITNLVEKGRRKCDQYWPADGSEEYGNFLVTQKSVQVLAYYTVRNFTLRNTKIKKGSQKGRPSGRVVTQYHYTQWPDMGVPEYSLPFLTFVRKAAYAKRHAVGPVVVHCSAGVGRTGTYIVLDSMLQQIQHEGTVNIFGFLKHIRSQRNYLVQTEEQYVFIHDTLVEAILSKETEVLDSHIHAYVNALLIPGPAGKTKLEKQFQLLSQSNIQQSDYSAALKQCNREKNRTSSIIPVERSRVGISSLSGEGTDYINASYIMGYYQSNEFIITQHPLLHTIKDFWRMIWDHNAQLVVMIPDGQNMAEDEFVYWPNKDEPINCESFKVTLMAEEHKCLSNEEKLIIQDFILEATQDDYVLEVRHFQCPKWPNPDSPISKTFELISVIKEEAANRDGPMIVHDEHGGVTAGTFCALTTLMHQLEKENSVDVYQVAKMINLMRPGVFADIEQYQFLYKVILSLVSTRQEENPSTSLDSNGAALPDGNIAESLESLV
T1 sequence (P23470 763-1445 V1038F limits assumed): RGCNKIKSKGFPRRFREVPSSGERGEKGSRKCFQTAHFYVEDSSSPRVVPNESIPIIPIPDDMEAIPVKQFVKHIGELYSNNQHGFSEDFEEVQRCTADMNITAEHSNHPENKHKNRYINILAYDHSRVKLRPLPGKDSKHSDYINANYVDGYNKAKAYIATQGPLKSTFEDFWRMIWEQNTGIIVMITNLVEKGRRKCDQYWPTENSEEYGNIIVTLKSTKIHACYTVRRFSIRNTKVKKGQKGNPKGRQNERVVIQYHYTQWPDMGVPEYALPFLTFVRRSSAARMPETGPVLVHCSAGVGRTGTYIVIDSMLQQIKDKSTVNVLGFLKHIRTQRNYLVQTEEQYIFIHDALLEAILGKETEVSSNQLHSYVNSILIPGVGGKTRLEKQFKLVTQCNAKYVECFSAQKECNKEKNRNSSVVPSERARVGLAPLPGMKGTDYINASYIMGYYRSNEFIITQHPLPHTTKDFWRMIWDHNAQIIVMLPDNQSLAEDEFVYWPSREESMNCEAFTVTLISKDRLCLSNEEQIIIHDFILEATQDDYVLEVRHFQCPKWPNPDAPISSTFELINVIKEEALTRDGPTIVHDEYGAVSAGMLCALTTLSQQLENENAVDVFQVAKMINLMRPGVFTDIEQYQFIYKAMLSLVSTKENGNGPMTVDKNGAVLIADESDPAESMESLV

With `CCOc1ccc(C(F)(F)F)cc1CSc1ccsc1C(=O)NS(=O)(=O)c1ccccc1` [NAZ2329] as the compound, how does the “effect of V1038F mutation on sensitivity to inhibitor” value (PTPRG V1038F) read?
The value was “resulted in resistance”.

And the cell migration (C6 cells)?
The cell migration was “inhibited”.

What about the “phosphorylation level of paxillin at Tyr-118” value [1] of the same compound?
Its value is “significantly enhanced the phosphorylation level”.

And the “effect of V1911F substitution on sensitivity to inhibitor” value (PTPRZ1 V1911F)?
The value was “markedly reduced the sensitivity”.

What about the “effect of M1902F / M1902H substitution on sensitivity to inhibitor” value (PTPRZ1 M1902F, M1902H) of the same compound?
Its value is “did not affect the sensitivity to the inhibitor”.
